Patent publication US8221975B2, “Method for detection of microorganism” (Morinaga Milk Industry Co., Ltd., priority 2007, dated 2012)
Several values for one entry are separate records, joined by “and”; a condition that tells them apart may be missing. Equal values may be shown once.

What was measured:
Assay type in all cases: cell-based
[1] = tested on: Enterobacter sakazakii ATCC 6538P; test: MMS-PCR of EMA-treated Enterobacter sakazakii, band intensity of final amplified product; settings: for bands of MMS gene amplified products (electrophoresis, FIG. 3): multi-step treatment (EMA 10 μg/ml-incubation-EMA 10 μg/ml)
Protocol: (§1) A Gram-negative bacterium, Enterobacter sakazakii (Enterobacter sakazakii ATCC […]; hereinafter, abbreviated as “sakazakii” in some cases), was cultured in brain-heart infusion (BHI) broth at 37° C., and 5 ml of the culture medium in the logarithmic growth phase was centrifuged at 8,000×g for 15 minutes at 4° C., followed by removal of the supernatant. 5 ml of physiological saline was added to the bacterial cells, and the whole was vigorously stirred and diluted 10-fold. Thus, a live cell suspension was prepared. […] The live cell suspension (1 ml) was placed in a 1.5-ml microtube, and the microtube was immersed in boiling water for 2 minutes and immediately cooled with ice water, to thereby prepare a injured cell suspension. The cells in the suspension probably include small numbers of live cells and dead cells but include mainly injured cells. Therefore, the cells are simply referred to as “injured cells”. Note that the method of the present invention is originally intended to detect live cells, and microorganism cells distinguished from live cells may be injured cells or dead cells. Ethidium monoazide (EMA) was added to the live cell suspension and injured cell suspension of sakazakii prepared above at a final concentration of 0, 10, 25, or 100 μg/ml, and the suspensions were allowed to stand under shading at 4° C. for 10 minutes. The suspensions were placed on ice and irradiated for 5 minutes with a 500-W visible light (FLOOD PRF: 100 […] ELECTRIC CO., LTD., wavelength: 500 to 700 nm) at a distance of 20 cm from the suspensions. Then, the suspensions were centrifuged at 15,000×g for 10 minutes at 4° C., and the supernatants were removed. An equal volume of physiological saline was added thereto, and the suspensions were stirred and centrifuged while cooling at 15,000×g for 10 minutes at 4° C., followed by removal of the supernatants. An equal volume of brain-heart infusion (BHI) broth was added thereto, and the suspensions were incubated at 37° C. for 2 hours. In the first EMA treatment, EMA was not added again to the live cell and injured cell suspensions having an EMA concentration of 0, while EMA was added again at a final concentration of 10 μg/ml to the live cell and injured cell suspensions having an EMA concentration of 10, 25, or 100 μg/ml. The suspensions were allowed to stand under shading at 4° C. for 10 minutes, placed on ice, and irradiated for 5 minutes with a 500-W visible light at a distance of 20 cm from the suspensions. Ethidium monoazide (EMA) was added to the live cell and injured cell suspensions of sakazakii prepared in the section “1.” at a final concentration of 0, 10, 25 or 100 μg/ml, and the suspensions were allowed to stand under shading at 4° C. for 10 minutes, placed on ice, and irradiated for 5 minutes with a 500-W visible light (FLOOD PRF: […] ELECTRIC CO., LTD., wavelength: 500 to 700 nm) at a distance of 20 cm from the suspensions. Microtubes including one of the live cell and injured cell suspensions of sakazakii treated in the sections 2-1) and 2-2) above were centrifuged at 15,000×g for 10 minutes at 4° C. The supernatants were removed, and 1 ml of physiological saline was added thereto. The resultant suspensions were stirred vigorously and centrifuged while cooling in the same way as above (washing treatment). One more washing treatment was performed in the same way, and the same amount of sterile water as the initial amount was added to the pellets, followed by vigorous stirring. PCR Master Mix (total volume: 25.25 μl) was prepared using Direct Buffer Mix (G&g SCIENCE CO., LTD., Yokohama, Kanagawa) capable of sequentially and automatically performing elution of chromosomal DNA from a bacterium and PCR reactions. […]

[2] = tested on: Salmonella enteritidis IIP 604; test: invA real-time PCR (378 bp) of EMA-treated Salmonella, Ct value
[3] = tested on: Listeria monocytogenes JCM 2873; test: hlyA-PCR of EMA-treated Listeria (live and injured cells), band intensity of final amplified product on agarose gel; settings: for bands of hlyA gene amplified products (electrophoresis, FIG. 1): multi-step treatment (EMA 100 μg/ml-incubation-EMA 25 or 10 μg/ml); for bands estimated as hlyA gene amplified products (electrophoresis, FIG. 1): single-step treatment, live cells and injured cells
[4] = tested on: Enterobacter sakazakii ATCC 6538P; test: ompA-PCR (469 bp) of EMA-treated Enterobacter sakazakii, band intensity of final amplified product; settings: multi-step treatment (EMA 10 μg/ml-incubation-EMA 10 μg/ml)
Protocol: as §1

Enterobacter sakazakii = test: as above
Protocol: as §1

[5] = tested on: Enterobacter sakazakii ATCC 6538P; test: ompA real-time PCR (469 bp) of EMA-treated Enterobacter sakazakii, Ct value
[6] = multi-step: EMA 10 μg/ml + Incubation (37° C., 2 hr) + EMA 10 μg/ml, Injured cell
[7] = multi-step: EMA 10 μg/ml + Incubation (37° C., 2 hr) + EMA 10 μg/ml, Live cell
[8] = single-step EMA 10 μg/ml, Injured cell
[9] = single-step EMA 10 μg/ml, Live cell
[10] = single-step EMA 25 μg/ml, Injured cell
[11] = single-step EMA 25 μg/ml, Live cell
[12] = single-step EMA 100 μg/ml, Injured cell
[13] = single-step EMA 100 μg/ml, Live cell
[14] = two-step EMA 10/10 μg/ml, Injured cell
[15] = two-step EMA 10/10 μg/ml, Live cell
[16] = two-step EMA 25/10 μg/ml, Injured cell
[17] = two-step EMA 25/10 μg/ml, Live cell
[18] = two-step EMA 100/10 μg/ml, Injured cell
[19] = two-step EMA 100/10 μg/ml, Live cell

CC[n+]1c(-c2ccccc2)c2cc(N=[N+]=[N-])ccc2c2ccc(N)cc21 [EMA, ethidium monoazide]
bands of MMS gene amplified products (electrophoresis, FIG. 3) ([1]; injured cells): no band was detected | bands of MMS gene amplified products (electrophoresis, FIG. 3) ([1]; live cells): bands were clearly detected | Band Intensity [1, 6]: 0.000 | Band Intensity [1, 7]: 0.997 | Band Intensity [1, 8]: 0.855 | Band Intensity [1, 9]: 0.845 | Ct value (mean ± SD, N = 2) [2, 8]: 31.6 ± 4.7 | number of times of positive reaction in two PCR assays (i/2) [2, 8]: (2/2) | Ct value (mean ± SD, N = 2) [2, 9]: 16.2 ± 0.4 | number of times of positive reaction in two PCR assays (i/2) [2, 9]: (2/2) | Ct value (mean ± SD, N = 2) [2, 10]: ND, ND^c,d | number of times of positive reaction in two PCR assays (i/2) [2, 10]: (0/2) | Ct value (mean ± SD, N = 2) [2, 11]: 18.23±0.3 and 18.2 ± 0.3 | number of times of positive reaction in two PCR assays (i/2) [2, 11]: (2/2) | Ct value (mean ± SD, N = 2) [2, 12]: ND, ND | number of times of positive reaction in two PCR assays (i/2) [2, 12]: (0/2) | Ct value (mean ± SD, N = 2) [2, 13]: 27.7±3.8 and 27.7 ± 3.6 | number of times of positive reaction in two PCR assays (i/2) [2, 13]: (2/2) | Ct value (mean ± SD, N = 2) [2, 14]: ND, ND | number of times of positive reaction in two PCR assays (i/2) [2, 14]: (0/2) | Ct value (mean ± SD, N = 2) [2, 15]: 16.0±3.5 | number of times of positive reaction in two PCR assays (i/2) [2, 15]: (2/2) | Ct value (mean ± SD, N = 2) [2, 16]: ND, ND | number of times of positive reaction in two PCR assays (i/2) [2, 16]: (0/2) | Ct value (mean ± SD, N = 2) [2, 17]: 18.9 ± 2.2 | number of times of positive reaction in two PCR assays (i/2) [2, 17]: (2/2) | Ct value (mean ± SD, N = 2) [2, 18]: ND, ND | number of times of positive reaction in two PCR assays (i/2) [2, 18]: (0/2) | Ct value (mean ± SD, N = 2) [2, 19]: 27.9 ± 3.0 | number of times of positive reaction in two PCR assays (i/2) [2, 19]: (2/2) | bands of hlyA gene amplified products (electrophoresis, FIG. 1) ([3]; injured cells): few or no bands were detected | bands of hlyA gene amplified products (electrophoresis, FIG. 1) ([3]; live cells): bands were clearly detected | Band Intensity ([3]; multi-step: EMA 100 μg/ml + Incubation (30° C., 2 hr) + EMA 10 μg/ml, Injured cell): 0.094 | Band Intensity ([3]; multi-step: EMA 100 μg/ml + Incubation (30° C., 2 hr) + EMA 10 μg/ml, Live cell): 1.420 | Band Intensity ([3]; multi-step: EMA 100 μg/ml + Incubation (30° C., 2 hr) + EMA 25 μg/ml, Injured cell): 0.024 | Band Intensity ([3]; multi-step: EMA 100 μg/ml + Incubation (30° C., 2 hr) + EMA 25 μg/ml, Live cell): 1.135 | Band Intensity [3, 8]: 1.539 | Band Intensity [3, 9]: 1.141 | Band Intensity [3, 10]: 0.418 | Band Intensity [3, 11]: 0.479 | bands estimated as hlyA gene amplified products (electrophoresis, FIG. 1) ([3]; EMA 10 μg/ml): detected in both the live cells and injured cells | bands estimated as hlyA gene amplified products (electrophoresis, FIG. 1) ([3]; EMA 25 μg/ml): almost disappeared in both the live cells and injured cells | bands of ompA gene amplified products (electrophoresis, FIG. 2) ([4]; injured cells): no band was detected | bands of ompA gene amplified products (electrophoresis, FIG. 2) ([4]; live cells): bands were clearly detected | Band Intensity (Enterobacter sakazakii; [6]): 0.000 | Band Intensity (Enterobacter sakazakii; [7]): 1.546 | Band Intensity (Enterobacter sakazakii; [8]): 0.502 | Band Intensity (Enterobacter sakazakii; [9]): 1.690 | Ct value (mean ± SD, N = 2) [5, 8]: 36.3, ND^c,d | number of times of positive reaction in two PCR assays (i/2) [5, 8]: (1/2) | Ct value (mean ± SD, N = 2) [5, 9]: 18.8 ± 0.3 | number of times of positive reaction in two PCR assays (i/2) [5, 9]: (2/2) | Ct value (mean ± SD, N = 2) [5, 10]: ND, ND | number of times of positive reaction in two PCR assays (i/2) [5, 10]: (0/2) | Ct value (mean ± SD, N = 2) [5, 11]: 20.9±0.6 | number of times of positive reaction in two PCR assays (i/2) [5, 11]: (2/2) | Ct value (mean ± SD, N = 2) [5, 12]: 35.0, ND | number of times of positive reaction in two PCR assays (i/2) [5, 12]: (1/2) | Ct value (mean ± SD, N = 2) [5, 13]: 23.9 ± 0.9 | number of times of positive reaction in two PCR assays (i/2) [5, 13]: (2/2) | Ct value (mean ± SD, N = 2) [5, 14]: ND, ND | number of times of positive reaction in two PCR assays (i/2) [5, 14]: (0/2) | Ct value (mean ± SD, N = 2) [5, 15]: 15.9±0.4 | number of times of positive reaction in two PCR assays (i/2) [5, 15]: (2/2) | Ct value (mean ± SD, N = 2) [5, 16]: ND, ND | number of times of positive reaction in two PCR assays (i/2) [5, 16]: (0/2) | Ct value (mean ± SD, N = 2) [5, 17]: 20.1 ± 1.6 | number of times of positive reaction in two PCR assays (i/2) [5, 17]: (2/2) | Ct value (mean ± SD, N = 2) [5, 18]: 36.0, ND | number of times of positive reaction in two PCR assays (i/2) [5, 18]: (1/2) | Ct value (mean ± SD, N = 2) [5, 19]: 23.6 ± 0.4 | number of times of positive reaction in two PCR assays (i/2) [5, 19]: (2/2)
